# In patent US4496551A (priority 1983, dated 1985):
# Tests used:
# Format in all cases: in vivo
# [1] = system: Puccinia recondita var. tritici; experiment: wheat leaf rust control on wheat seedlings; details: 100 ppm, sprayed day before inoculation
# Description: (§1) Compounds of this invention were dissolved in acetone in an amount equal to 6% of the final volume and then suspended at a concentration of 100 ppm in purified water containing 250 ppm of the surfactant TREM 014 (polyhydric alcohol esters). This suspension was sprayed to the point of run-off on wheat seedlings. The following day, the plants were inoculated with a spore suspension of Puccinia recondita var. tritici, causal agent of wheat leaf rust, and incubated in a saturated humidity chamber at 20° for 24 hours and then in a growth room for an additional 7 days, when disease ratings were made. Treated plants from successful treatments had few or no rust pustules while the untreated plants had numerous rust pustules on each leaf.
# Erysiphe cichoracearum = experiment: cucumber powdery mildew control on cucumber seedlings; details: 7 days; for pest or weed control at 100 ppm: Golovinomyces cichoracearum, 168 h
# Description: Compounds of the previous examples were again dissolved in acetone in an amount equal to 6% of the final volume and then suspended at a concentration of 100 ppm in purified water containing 250 ppm of the surfactant TREM 014 (polyhydric alcohol esters). This suspension was sprayed to the point of run-off on cucumber seedlings. The following day, the plants were inoculated with a spore suspension of the fungus Erysiphe cichoracearum, causal agent of cucumber powdery mildew, and incubated in a growth room for 7 days. Disease ratings were then made. Treated plants from successful treatments had little or no powdery mildew in contrast to untreated plants which were covered with powdery mildew.
# Venturia inaequalis = experiment: apple scab control on apple seedlings; details: 100 ppm; for pest or weed control at 100 ppm: Venturia inaequalis
# Description: as §1, with “apple” for “wheat”, “the fungus Venturia inaequalis,” for “Puccinia recondita var. tritici,”, “apple scab,” for “wheat leaf rust,”, “10-12 days.” for “7 days, when disease ratings were made.”, “apple scab lesions when compared to” for “rust pustules while the”, “which were covered with scab lesions.” for “had numerous rust pustules on each leaf.”
# Helminthosporium maydis = experiment: southern corn leaf blight control on corn seedlings; details: for pest or weed control at 100 ppm: Bipolaris maydis, 168 h
# Description: Compounds of the previous example were again dissolved in acetone in an amount equal to 6% of the final volume and then suspended at a concentration of 100 ppm in purified water containing 250 ppm of the surfactant TREM 014 (polyhydric alcohol esters). This suspension was sprayed to the point of run-off on corn seedlings. The following day, the plants were inoculated with a spore suspension of Helminthosporium maydis, causal agent of southern corn leaf blight, and incubated in a saturated humidity chamber at 20° for 24 hours and then in a growth room for an additional 7 days, when disease ratings were made. Treated plants from successful treatments had few lesions while the untreated plants had numerous lesions on each leaf.
# Cercospora arachidicola = experiment: peanut early leafspot control on peanut seedlings; details: for pest or weed control at 100 ppm: Mycosphaerella arachidis, 336 h
# Description: Compounds of the previous examples were again dissolved in acetone in an amount equal to 6% of the final volume and then suspended at a concentration of 100 ppm in purified water containing 250 ppm of the surfactant TREM 014 (polyhydric alcohol esters). This suspension was sprayed to the point of run-off on peanut seedlings. The following day, the plants were inoculated with a spore suspension of Cercospora arachidicola, causal agent of peanut early leafspot, and incubated in a saturated humidity chamber at 27° for 24 hours and then in a growth room for an additional 14 days, when disease ratings were made. Treated plants from successful treatments had few or no leafspots while the untreated plants had numerous leafspots on each leaf.
# Rhizoctonia solani = experiment: rice sheath blight control on rice seedlings; details: 7 days; for pest or weed control at 100 ppm: Rhizoctonia solani, 168 h
# Description: Several compounds of the previous examples were again dissolved in acetone in an amount equal to 6% of the final volume and then suspended at a concentration of 100 ppm in purified water containing 250 ppm of the surfactant TREM 014 (polyhydric alcohol esters). This suspension was sprayed to the point of run-off on rice seedlings. The following day, the plants were inoculated with a mixture of bran and the mycelium of Rhizoctonia solani, causal agent of sheath blight of rice, and incubated in a growth room for 7 days. Disease ratings were then made. Treated plants from successful treatments had little sheath blight in contrast to untreated plants which were covered with sheath blight.
# Phytophthora infestans = experiment: whole plant or invertebrate; details: for pest or weed control at 100 ppm: Phytophthora infestans, in Solanum lycopersicum, 168 h, read-out: % Control of Tomato Late Blight
# Pyricularia oryzae = experiment: whole plant or invertebrate; details: 168 h, read-out: % Control of Rice Blast
Compound,% Control Wheat Leaf Rust [1] [%],% Control Cucumber Powdery Mildew (Erysiphe cichoracearum; 100 ppm) [%],% Control Apple Scab (Venturia inaequalis) [%],% Control of Southern Corn Leaf Blight (Helminthosporium maydis; 100 ppm) [%],% Control Peanut Early Leafspot (Cercospora arachidicola; 100 ppm) [%],% Control of Rice Sheath Blight (Rhizoctonia solani; 100 ppm) [%],% Control of Tomato Late Blight (Phytophthora infestans; 100 ppm) [%],pest or weed control at 100 ppm [1] [%],pest or weed control at 100 ppm (Erysiphe cichoracearum) [%],pest or weed control at 100 ppm (Venturia inaequalis) [%],pest or weed control at 100 ppm (Helminthosporium maydis) [%],pest or weed control at 100 ppm (Cercospora arachidicola) [%],pest or weed control at 100 ppm (Rhizoctonia solani) [%],pest or weed control at 100 ppm (Pyricularia oryzae) [%],pest or weed control at 100 ppm (Phytophthora infestans) [%]
"C[Si](C)(Cn1ccnc1)c1ccc(-c2ccccc2)cc1.[Cl][Cu] [1:1 complex of (1,1'-Biphenyl-4-yl)dimethyl(1H-imidazol-1-ylmethyl)silane and Cuprous Chloride]",100,100,100,0,100,50,0,–,–,–,–,–,–,–,–
"C[Si](C)(Cn1ccnc1)c1ccccc1-c1ccccc1 [(1,1'-Biphenyl-2-yl)dimethyl(1H-imidazol-1-ylmethyl)silane]",–,–,–,–,–,–,–,0,50,90,0,30,90,90,0
"C[Si](C)(Cn1ccnc1)c1cccc(-c2ccccc2)c1 [(1,1'-Biphenyl-3-yl)dimethyl(1H-imidazol-1-ylmethyl)silane]",–,–,–,–,–,–,–,90,0,90,90,80,90,80,0
"C[Si](Cn1ccnc1)(c1ccccc1)c1ccc(-c2ccccc2)cc1 (stereo not drawn) [(1,1'-Biphenyl-4-yl)(1H-imidazol-1-ylmethyl)methyl(phenyl)silane]",–,–,–,–,–,–,–,100,100,0,80,80,0,0,0
"C[Si](Cn1ccnc1)(c1ccc(F)cc1)c1ccc(-c2ccccc2)cc1 (stereo not drawn) [(1,1'-Biphenyl-4-yl)(4-fluorophenyl)(1H-imidazol-1-ylmethyl)methylsilane]",–,–,–,–,–,–,–,80,100,50,70,100,0,–,0
"CC(C)(C)O[Si](C)(Cn1ccnc1)c1ccccc1 (stereo not drawn) [(1,1-Dimethylethoxy)(1H-imidazol-1-ylmethyl)methyl(phenyl)silane]",–,–,–,–,–,–,–,0,100,0,0,0,0,0,0
COc1ccc([Si](C)(Cn2ccnc2)c2ccc(OC)cc2)cc1 [(1H-Imidazol-1-ylmethyl)[bis(4-methoxyphenyl)]methylsilane],–,–,–,–,–,–,–,0,50,50,0,0,0,0,0
CC(C)O[Si](C)(Cn1ccnc1)c1ccccc1 (stereo not drawn) [(1H-Imidazol-1-ylmethyl)methyl(phenyl)(2-propoxy)silane],–,–,–,–,–,–,–,0,90,0,0,0,0,0,0
CC(C)O[Si](Cn1ccnc1)(OC(C)C)c1ccccc1 [(1H-Imidazol-1-ylmethyl)phenylbis(2-propoxy)silane],–,–,–,–,–,–,–,0,0,70,0,0,0,–,0
"COc1cccc([Si](C)(C)Cn2ccnc2)c1OC [(2,3-Dimethoxyphenyl)(1H-imidazol-1-ylmethyl)dimethylsilane]",–,–,–,–,–,–,–,0,100,0,0,0,0,0,0
"C[Si](Cn1ccnc1)(c1ccccc1)c1ccc(Cl)cc1Cl (stereo not drawn) [(2,4-Dichlorophenyl)(1H-imidazol-1-ylmethyl)methyl(phenyl)silane]",–,–,–,–,–,–,–,90,100,80,0,100,0,0,0
"COc1cccc(OC)c1[Si](C)(C)Cn1ccnc1 [(2,6-Dimethoxyphenyl)dimethyl(1H-imidazol-1-ylmethyl)silane]",–,–,–,–,–,–,–,0,0,0,50,0,0,0,50
C[Si](Cn1ccnc1)(c1ccccc1)c1ccccc1Cl (stereo not drawn) [(2-Chlorophenyl)(1H-imidazol-1-ylmethyl)methyl(phenyl)silane],–,–,–,–,–,–,–,0,100,100,0,100,0,0,0
C[Si](Cn1ccnc1)(c1ccc(Cl)cc1)c1ccccc1Cl (stereo not drawn) [(2-Chlorophenyl)(4-chlorophenyl)(1H-imidazol-1-ylmethyl)methylsilane],–,–,–,–,–,–,–,100,100,80,0,80,0,–,0
C[Si](C)(Cn1ccnc1)c1cccc(Cl)c1 [(3-Chlorophenyl)dimethyl(1H-imidazol-1-ylmethyl)silane],–,–,–,–,–,–,–,80,80,60,0,0,90,0,0
CC(n1ccnc1)[Si](C)(c1ccc(F)cc1)c1ccc(F)cc1 (stereo not drawn) [bis(4-Fluorophenyl)methyl[1-(1H-imidazol-1-yl)ethyl]silane],–,–,–,–,–,–,–,0,100,100,–,0,90,0,0
